The source of these data is patent publication US20230381077A1, “Antibacterial And Deodorizing Composition, And Preparation Method Therefor” (LG Chem, Ltd., priority 2021, published 2023).

The test system of test [1] is Proteus mirabilis. Put plainly: Antibacterial power measurement of first compound (bacterial inhibition rate, broth, absorbance 600 nm). In kind it is cell-based. To be noted: 0.01 g first compound in 25 ml broth, 3,000 CFU/ml, 35° C. for 16 hours.
Test [2] has as its system E. coli. Described as above. In kind it is cell-based. To be noted: Escherichia coli, 0.01 g first compound in 25 ml broth, 3,000 CFU/ml, 35° C. for 16 hours.

Consider `CCCCCCCCCC[N+](C)(CCO)CCO` [Antibacterial Deodorant Monomer A], for which the inhibition of growth at 400 µg/mL in test [1] came to 99.9%; in test [2], 98.9%.

For the compound `CCCCCCCC[N+](C)(CCO)CCO` [Antibacterial Deodorant Monomer B], the inhibition of growth at 400 µg/mL in test [1] came out at 91.2%; in test [2], 89.3%.

Regarding `CCCCCCCCCC[N+](C)(C)CCO` [Antibacterial Deodorant Monomer D], the inhibition of growth at 400 µg/mL in test [1] was found to be 91.7%; in test [2], 94.4%.

For the compound `CCCCCCCCCCCC[N+](C)(C)CCO` [Antibacterial Deodorant Monomer E], the inhibition of growth at 400 µg/mL in test [1] was 96.9%; in test [2] it was 96.1%.

Turning to `CCCCCCCCCC[N+](C)(C)CCO` [Antibacterial Deodorant Monomer F], the inhibition of growth at 400 µg/mL in test [1] (16 h) came out at 83.1%; in test [2] (16 h), 96.4%.

Take `CCCC[N+](C)(CCO)CCO` [Antibacterial Deodorant Monomer G]: the figures for the inhibition of growth at 400 µg/mL in test [1] and in test [2] were 18.3% and 15.2%, respectively.

`CCCCCCCCCCCC[N+](C)(C)CCCCCCCCCCCC` [Didodecyldimethylammonium chloride, reference compound]: the inhibition of growth at 400 µg/mL in test [1] worked out at 88.5%; in test [2] it was 90.1%.

Consider `N=C(N)N` [Guanidine, reference compound], for which the inhibition of growth at 400 µg/mL in test [1] was found to be 97.2%; in test [2] it was 96.5%.

Regarding `CCCCCCCCCCCCCCCC[N+](C)(C)C` [Hexadecyltrimethylammonium chloride, reference compound], the values for the inhibition of growth at 400 µg/mL in test [1] (16 h) and in test [2] (16 h) were 93.5% and 92.1%, respectively.

Turning to `CCCCCCCCCC[N+](C)(C)CCCCCCCCO` [reference compound], the inhibition of growth at 400 µg/mL is 85.1% in test [1] and 82.1% in test [2].

Turning to `CCCCCCCCCCCC[N+](CCO)(CCCCCCCCCC)CCCCCCCCCCCC` [reference compound], the figures for the inhibition of growth at 400 µg/mL in test [1] and in test [2] were 81.3% and 79.8%, respectively.

Broadly, the inhibition of growth is how much of the control response was suppressed.
